Laboratory results from PubChem BioAssay (NCI).
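Five concentrations, 48 hours, 96-well plates. Definition used: TGI = concentration required for complete inhibition of growth.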

Tests used:
Assay in all cases: inhibition of tumour cell growth, NCI panel, 48 h
SF-268 CNS = test system: SF-268 CNS
IGROV1 ovarian = test system: IGROV1 ovarian
SK-MEL-2 melanoma = test system: SK-MEL-2 melanoma
PC-3 prostate = test system: PC-3 prostate
CAKI-1 renal = test system: CAKI-1 renal
OVCAR-3 ovarian = test system: OVCAR-3 ovarian
HCT-15 colon = test system: HCT-15 colon
NCI-H522 lung = test system: NCI-H522 lung
786-0 renal = test system: 786-0 renal
K-562 leukemia = test system: K-562 leukemia
M14 melanoma = test system: M14 melanoma
TK-10 renal = test system: TK-10 renal
HL-60(TB) leukemia = test system: HL-60(TB) leukemia
LOX IMVI melanoma = test system: LOX IMVI melanoma
MOLT-4 leukemia = test system: MOLT-4 leukemia
HT29 colon = test system: HT29 colon
HS 578T breast = test system: HS 578T breast
CCRF-CEM leukemia = test system: CCRF-CEM leukemia
SN12C renal = test system: SN12C renal
UO-31 renal = test system: UO-31 renal

Row | SMILES | TGI (SF-268 CNS) [µM] | TGI (IGROV1 ovarian) [µM] | TGI (SK-MEL-2 melanoma) [µM] | TGI (PC-3 prostate) [µM] | TGI (CAKI-1 renal) [µM] | TGI (OVCAR-3 ovarian) [µM] | TGI (HCT-15 colon) [µM] | TGI (NCI-H522 lung) [µM] | TGI (786-0 renal) [µM] | TGI (K-562 leukemia) [µM] | TGI (M14 melanoma) [µM] | TGI (TK-10 renal) [µM] | TGI (HL-60(TB) leukemia) [µM] | TGI (LOX IMVI melanoma) [µM] | TGI (MOLT-4 leukemia) [µM] | TGI (HT29 colon) [µM] | TGI (HS 578T breast) [µM] | TGI (CCRF-CEM leukemia) [µM] | TGI (SN12C renal) [µM] | TGI (UO-31 renal) [µM]
1 | C=CCOc1ccc(C2(c3ccc(OCC=C)cc3)C(=O)Nc3ccccc32)cc1 | > 10 | > 10 | > 10 | > 10 | > 10 | > 10 | > 10 | > 10 | > 10 | > 10 | > 10 | > 10 | > 10 | > 10 | > 10 | > 10 | 6.38 | > 10 | > 10 | 
2 | COc1ccc(C2C3=C(COC3=O)OC(C)(C)Oc3cc4c(cc32)OCO4)cc1 (stereo not given) | > 100 | > 100 | > 100 | 73.4 | > 86.9 | > 100 | > 100 | > 69.5 | > 100 | > 61.6 | > 100 | 97 | > 61.3 | > 86.8 | > 83.8 | > 100 | > 100 | > 100 | > 100 | 98.7
3 | CCN(CC)CCOc1ccc(N2Cc3ccccc3C2=O)cc1 | > 10 | > 10 | > 10 | > 10 | > 10 | > 10 | > 10 | > 10 | > 10 | > 10 | > 10 | > 10 | > 10 | > 10 | > 10 | > 10 | > 10 | > 10 | > 10 | > 10
4 | O=C1N[C@H]2C(=O)c3c(Cl)sc(Cl)c3[C@H]2O1 | 22.4 | 10.6 | 43.4 | 31 | 9.7 | 3.54 | 16.6 | 8.83 | 31.3 | 5.09 | 19.6 | 70.8 | 4.91 | 6.97 | 8.22 | 6.23 | 67.1 | 10.9 | 30.3 | 3.24
5 | O=C(/C=c1\oc(=O)/c(=C/C(=O)c2ccc(Cl)cc2)oc1=O)c1ccc(Cl)cc1 | > 100 | > 100 | > 100 | > 100 | > 100 | > 100 | > 100 | 72.9 | > 100 | > 100 | > 100 | > 100 | > 100 | > 100 | 56 | > 100 | > 100 | > 100 | > 100 | > 100
6 | CC(O)CCNC(=O)Nc1c(C(F)(F)F)cc(-c2ccccc2)[nH]c1=O (stereo not given) | > 100 | > 100 | > 100 | > 100 | > 100 | > 100 | > 100 | > 100 | > 100 | > 100 | > 100 | > 100 | > 100 | > 100 | > 100 | > 100 | > 100 | > 100 | > 100 | > 100
7 | CCCCC1C(=O)N(c2ccc(S(=O)(=O)Nc3ccccn3)cc2)N(c2ccc(O)c(C(=O)O)c2)C1=O (stereo not given) | > 100 | > 100 | > 100 | > 100 | > 100 | > 100 | > 100 | > 100 | > 100 | > 100 | > 100 |  | > 100 | > 100 | > 100 | > 100 | > 100 | > 100 | > 100 | > 100
8 | COc1cccc(CCn2c(N)c(C(=O)O)c3ccc([N+](=O)[O-])cc3c2=O)c1 | > 100 | > 100 | 68.3 | > 100 | > 100 | > 100 | > 100 | 75.8 | > 100 | > 100 | > 100 |  | > 100 | > 100 | > 100 | > 100 | > 100 | > 100 | > 100 | > 100
9 | c1cc2[nH]snc2c2cncc12 | > 100 | > 100 | > 100 | > 100 | > 100 | > 100 | > 100 | > 100 | > 100 | > 100 |  | > 100 | > 100 | > 100 | > 100 | > 100 | > 100 | > 100 | > 100 | > 100
10 | COc1ccc2c(c1)CCC(CN1CCN(CCOC(c3ccc(F)cc3)c3ccc(F)cc3)CC1)C2O (stereo not given) | 27 | 28.4 | 30.8 | 24 | 32 | 32.5 | 22.3 | 28.6 | 25.2 | 45 | 25.5 | 29.7 | 14.6 | 29.8 | 36.2 | 18.4 | 38.7 | 48.3 | 34 | 
11 | COC(=O)/C=C\[C@@H]1[C@H](C)N1S(=O)(=O)c1ccc(C)cc1 (stereo not given in full) | > 100 | > 100 | > 100 | > 100 | > 100 | > 100 | > 100 | > 100 | > 100 | > 100 | > 100 | > 100 | > 100 | > 100 | > 100 | > 100 | > 100 | > 100 | > 100 | 
12 | Cc1ccc(C(=O)OC(C)C)cc1N=NN(C)C | > 100 | > 100 | > 100 | > 100 | > 100 | > 100 | > 100 | > 100 | > 100 | > 100 | > 100 | > 100 | > 100 | > 100 | > 100 | > 100 | > 100 | > 100 | > 100 | > 100
13 | CCc1cccc(CC)c1Nc1nc2c(s1)C(=O)c1ccccc1C2=O | 41.7 | 25.7 | 39.8 | 30.2 | 30 | 34 | 98.1 | 83.3 | 36 | > 100 | 32.8 | 36.6 | > 100 | 36 | > 100 |  | 71.4 | > 100 | 47.9 | 29.2
14 | CCN(CC)CCSc1n[nH]c(-c2c[nH]c3nc(C)ccc3c2=O)n1 | > 100 | > 100 | > 100 | > 100 | > 100 | > 100 | > 100 | > 100 | > 100 | > 100 | > 100 | > 100 | > 100 | > 100 | > 100 | > 100 | > 100 | > 100 | > 100 | > 100
15 | CN(CCCCN1CCCC1)CCCCN(C)C(=O)Cc1ccc(Cl)c(Cl)c1 | 39.8 | 37 | 19.7 | 36.4 | 39.2 | 44.5 | 50 | 27.7 | 25.7 | 10.5 | 35.7 | 32.6 | 36.1 | 25.2 | 22.1 | 15.4 | 54.5 | 20.7 | 36.8 | 3.31
16 | CS(=O)(=O)N1CC(CCl)c2ccc(NCCN)cc21 (stereo not given) | > 100 | 49.8 | > 100 | > 100 | > 100 | > 100 | > 100 | > 100 | 72 | > 100 | > 100 | > 100 | > 100 | > 100 | > 100 | > 100 | > 100 | > 100 | > 100 | > 100
17 | CCOC(=O)NC(Nc1ccc(F)c(F)c1)(C(=O)OCC)C(F)(F)F (stereo not given) | > 100 | > 100 | > 86.5 | > 100 | > 100 | > 100 | > 100 | > 100 | > 100 | > 100 | > 100 | > 100 | > 100 | > 100 | > 100 | > 100 | > 100 | > 100 | > 100 | > 100
18 | COc1cc(/C=C/C=C2\CCC/C(=C\C=C\c3ccc(O)c(OC)c3)C2=O)ccc1O | 40.4 | 74.7 | 87.5 | 38.2 | 34.2 | > 100 | 43.7 | 3.39 | 63.5 | > 100 | > 100 | 52 | > 100 | 33.5 | 10.4 | 31.1 | > 100 | 8.99 | 65.8 | 39.5
19 | O=c1oc2ccccc2cc1-c1csc(Nc2cc(Cl)cc(Cl)c2)n1 | > 100 | 36 | > 100 | > 100 | > 32.4 | 35.2 | > 100 | 96.6 | 12.9 | > 100 | > 72.2 | 85.2 | > 100 | 7.62 | > 100 | 14.2 | 98.1 | > 100 | > 44.8 | 7.53
20 | CN(C)/N=C1\C=C2CC[C@H](O[Si](C)(C)C(C)(C)C)[C@@]2(C)CC1 | 39.6 | 41 | 30.4 | 28.1 | 27.3 | 27.9 | 33 | 26.3 | 31.9 | 35.9 | 33 | 34.6 | 26.5 | 34.4 | 32.4 | 34.9 | 43.9 | 44 |  | 29.8
21 | CCOC(=O)c1ccc(NC(=O)O/N=C(/Cl)C(C)C)cc1 | 34.8 | 43 | 29.3 | 34.9 | 8.87 | 11.5 | 24.9 | 3.85 | 16.5 | 3.52 | 14.6 | 33.5 | 3.26 | 9.65 | 4.63 | 48 | 94.8 | 2.55 | 44 | 31.9
22 | N#CC(c1ccccc1)N(CCc1ccccc1)C(=O)c1ccccc1 (stereo not given) | > 86.5 | > 100 | > 100 | > 100 | > 100 | > 100 | > 100 | > 100 | > 91.4 | > 100 | > 100 | > 100 | > 100 | > 100 | > 100 | > 100 | 86.3 | > 100 | > 100 | > 100
23 | N#Cc1c(N)c2c(c(-c3ccccc3)c1-c1ccccc1)C(=O)N(Nc1ccccc1)C2=O | > 100 | > 100 | > 100 | > 100 | > 100 | 78.1 | > 100 | > 100 | > 100 | > 100 | 87.4 | > 100 | > 100 | 86.8 | > 100 |  | > 100 | > 100 | > 100 | 78.3
24 | N#C/C(=C\c1ccc(F)cc1)c1nc2ccccc2c(=O)[nH]1 | > 100 | > 100 | > 100 | > 100 | > 100 |  | > 100 | > 100 | > 100 | > 100 | > 100 | > 100 | > 100 | > 100 | > 100 | > 100 | > 100 | > 100 | > 100 | > 100
